Measurements from ChEMBL document CHEMBL3745609, “Discovery of pyrazolopyrimidine phosphodiesterase 10A inhibitors for the treatment of schizophrenia” (Bioorg Med Chem Lett, 2016).
In brackets after ≈: the same amount, converted by molar mass. One block for each compound: values may come before it. Activity calls are given as the source filed them. No cut-off for these calls is given here.

Tests used:
[1] = target: cAMP and cAMP-inhibited cGMP 3',5'-cyclic phosphodiesterase 10A (Homo sapiens, UniProt Q9Y233); assay: Inhibition of PDE10A (unknown origin) by IMAP assay
[2] = Aqueous solubility of the compound at pH 7; format: physicochemical
[3] = target: T1, Nuclear receptor subfamily 1 group I member 2 (Homo sapiens, UniProt O75469); assay: Activation of PXR (unknown origin); format: ADME
T1 sequence (O75469 whole entry): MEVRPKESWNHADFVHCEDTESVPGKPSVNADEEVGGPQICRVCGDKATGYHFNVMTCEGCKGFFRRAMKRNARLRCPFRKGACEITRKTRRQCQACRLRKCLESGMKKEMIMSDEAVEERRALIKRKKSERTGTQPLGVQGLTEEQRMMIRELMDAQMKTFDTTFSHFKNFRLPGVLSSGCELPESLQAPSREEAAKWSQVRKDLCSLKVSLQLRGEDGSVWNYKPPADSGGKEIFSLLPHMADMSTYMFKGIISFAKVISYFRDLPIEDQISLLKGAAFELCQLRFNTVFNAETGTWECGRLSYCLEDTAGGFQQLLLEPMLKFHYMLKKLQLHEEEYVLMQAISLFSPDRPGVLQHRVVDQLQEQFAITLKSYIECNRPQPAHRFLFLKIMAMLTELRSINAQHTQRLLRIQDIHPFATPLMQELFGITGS

[4] = target: Voltage-gated inwardly rectifying potassium channel KCNH2 (Homo sapiens, UniProt Q12809); assay: Inhibition of MK-499 binding to human ERG
[5] = Plasma protein binding in rat; format: ADME, cell-free; settings: read-out: PPB (converted)
[6] = Clearance in rat; format: ADME, organism-based; settings: in vivo
Homo sapiens = species: Homo sapiens; assay: Selectivity for PDE10A (unknown origin) over PDE (unknown origin)
Cytochrome P450 3A4 [7] = target: T2, Cytochrome P450 3A4 (Homo sapiens, UniProt P08684); assay: Inhibition of CYP3A4 (unknown origin); format: ADME
Cytochrome P450 2C9 = Cytochrome P450 2C9 (Homo sapiens, UniProt P11712); assay: Inhibition of CYP2C9 (unknown origin); format: ADME
[8] = Plasma clearance in iv dosed Wistar Hanover rat; format: ADME, organism-based
[9] = Plasma protein binding in iv dosed Wistar Hanover rat; format: ADME, organism-based; settings: read-out: PPB (converted)
Cytochrome P450 2D6 = Cytochrome P450 2D6 (Homo sapiens, UniProt P10635); assay: Inhibition of CYP2D6 (unknown origin); format: ADME
Rattus norvegicus [10] = species: Rattus norvegicus; assay: Anti-psychotic activity in rat assessed as reversal of MK-801-induced prepulse inhibition; format: functional, organism-based
[11] = Lipophilicity, log D of the compound at pH 7 by HPLC method; format: physicochemical; settings: buffer
[12] = Apparent passive permeability of the compound; format: physicochemical; settings: not told
P-gp [13] = assay: Substrate activity at human P-gp assessed as efflux ratio of permeability across basolateral to apical over apical to basolateral side; format: ADME; settings: not told
P-gp [14] = assay: Substrate activity at rat P-gp assessed as efflux ratio of permeability across basolateral to apical over apical to basolateral side; format: ADME; settings: not told
Cytochrome P450 3A4 [15] = target: T2, Cytochrome P450 3A4; assay: Time dependent inhibition of CYP3A4 (unknown origin); format: ADME
[16] = Plasma protein binding in iv dosed beagle dog; format: ADME, organism-based, Canis lupus familiaris; settings: read-out: PPB (converted)
[17] = Plasma protein binding in iv dosed rhesus monkey; format: ADME, organism-based, Macaca mulatta; settings: read-out: PPB (converted)
[18] = Plasma protein binding in iv dosed human; format: ADME, organism-based; settings: read-out: PPB (converted)
[19] = Inhibition of platelet aggregation factor (unknown origin); set-up: species or system Homo sapiens
Rattus norvegicus [20] = assay: Toxicity in rat up to 250 mg/kg after 7 days; format: organism-based; settings: in vivo, 168 h
[21] = Plasma clearance in iv dosed beagle dog; format: ADME, organism-based, Canis lupus familiaris
[22] = Plasma clearance in iv dosed rhesus monkey; format: ADME, organism-based, Macaca mulatta
[23] = Terminal half life in iv dosed Wistar Hanover rat; format: ADME, organism-based; settings: in vivo, read-out: beta t1/2 (converted)
[24] = Terminal half life in iv dosed beagle dog; format: ADME, organism-based, Canis lupus familiaris; settings: in vivo, read-out: beta t1/2 (converted)
[25] = Terminal half life in iv dosed rhesus monkey; format: ADME, organism-based, Macaca mulatta; settings: in vivo, read-out: beta t1/2 (converted)
[26] = Oral bioavailability in Wistar Hanover rat; format: ADME, organism-based; settings: in vivo
[27] = Oral bioavailability in beagle dog; format: ADME, organism-based, Canis lupus familiaris; settings: in vivo
[28] = Oral bioavailability in rhesus monkey; format: ADME, organism-based, Macaca mulatta; settings: in vivo
Rattus norvegicus [29] = assay: In vivo inhibition of PDE10A in rat striatum assessed as increase in cGMP level at >3 mg/kg, po after 2 hrs relative to control; format: functional
Rattus norvegicus [30] = assay: Anti-psychotic activity in rat assessed as plasma concentration needed to attenuate MK-801-induced hyperlocomotion at 1.5 mg/kg, po; format: functional
Rattus norvegicus [31] = assay: Cognition enhancing activity in rat assessed as increase in episodic like memory up to 1.5 mg/kg, po by novel object recognition assay; format: functional, organism-based
Salmonella typhimurium = assay: Mutagenicity in Salmonella typhimurium up to 5000 ug/plate by 5-strain Ames test; format: toxicity, organism-based; settings: salmonella enterica subsp. enterica serovar typhimurium
Cavia porcellus = species: Cavia porcellus; assay: Toxicity in guinea pig; format: organism-based; settings: in vivo
Rattus norvegicus [32] = assay: Cardiotoxicity in iv dosed rat; format: toxicity, organism-based; settings: in vivo
Rattus norvegicus [33] = assay: Toxicity in rat assessed as influence on circulating prolactin level up to 30 mg/kg, po; format: organism-based; settings: in vivo
Rattus norvegicus [34] = assay: Toxicity in rat assessed as induction of catalepsy up to 30 mg/kg, po; format: organism-based; settings: in vivo
Rattus norvegicus [35] = species: Rattus norvegicus; assay: Toxicity in rat assessed as decrease in body weight gain after 7 days; format: organism-based; settings: in vivo, 168 h
Rattus norvegicus [36] = species: Rattus norvegicus; assay: Toxicity in rat assessed as decrease in total body fat after 7 days; format: organism-based; settings: in vivo, 168 h
Rattus norvegicus [37] = species: Rattus norvegicus; assay: Toxicity in rat assessed as lean body mass after 7 days; format: organism-based; settings: in vivo, 168 h
Rhesus monkey [38] = assay: In-vivo occupancy at PDE10A in rhesus monkey assessed as inhibition of [11C]MK-8193 binding; format: functional, Macaca mulatta
Rhesus monkey [39] = assay: Potency index, ratio of THPP-1 Occ50 to compound Occ50 for in-vivo occupancy at PDE10A in rhesus monkey assessed as inhibition of [11C]MK-8193 binding; format: functional, Macaca mulatta

T2 sequence (P08684 whole entry): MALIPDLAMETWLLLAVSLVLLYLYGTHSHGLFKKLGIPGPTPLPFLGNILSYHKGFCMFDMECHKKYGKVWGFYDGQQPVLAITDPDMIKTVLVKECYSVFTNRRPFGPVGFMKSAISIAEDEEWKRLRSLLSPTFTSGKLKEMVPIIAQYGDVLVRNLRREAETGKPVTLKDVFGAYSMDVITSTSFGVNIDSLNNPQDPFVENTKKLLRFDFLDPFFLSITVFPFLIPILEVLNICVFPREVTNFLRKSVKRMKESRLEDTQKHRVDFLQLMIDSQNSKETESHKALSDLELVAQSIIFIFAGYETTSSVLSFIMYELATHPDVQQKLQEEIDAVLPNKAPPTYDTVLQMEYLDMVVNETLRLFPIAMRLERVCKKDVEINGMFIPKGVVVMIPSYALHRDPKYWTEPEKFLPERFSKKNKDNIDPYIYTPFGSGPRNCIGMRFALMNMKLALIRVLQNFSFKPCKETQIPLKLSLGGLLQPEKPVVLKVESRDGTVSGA
Chain of Voltage-gated inwardly rectifying potassium channel KCNH2 (Q12809 whole entry): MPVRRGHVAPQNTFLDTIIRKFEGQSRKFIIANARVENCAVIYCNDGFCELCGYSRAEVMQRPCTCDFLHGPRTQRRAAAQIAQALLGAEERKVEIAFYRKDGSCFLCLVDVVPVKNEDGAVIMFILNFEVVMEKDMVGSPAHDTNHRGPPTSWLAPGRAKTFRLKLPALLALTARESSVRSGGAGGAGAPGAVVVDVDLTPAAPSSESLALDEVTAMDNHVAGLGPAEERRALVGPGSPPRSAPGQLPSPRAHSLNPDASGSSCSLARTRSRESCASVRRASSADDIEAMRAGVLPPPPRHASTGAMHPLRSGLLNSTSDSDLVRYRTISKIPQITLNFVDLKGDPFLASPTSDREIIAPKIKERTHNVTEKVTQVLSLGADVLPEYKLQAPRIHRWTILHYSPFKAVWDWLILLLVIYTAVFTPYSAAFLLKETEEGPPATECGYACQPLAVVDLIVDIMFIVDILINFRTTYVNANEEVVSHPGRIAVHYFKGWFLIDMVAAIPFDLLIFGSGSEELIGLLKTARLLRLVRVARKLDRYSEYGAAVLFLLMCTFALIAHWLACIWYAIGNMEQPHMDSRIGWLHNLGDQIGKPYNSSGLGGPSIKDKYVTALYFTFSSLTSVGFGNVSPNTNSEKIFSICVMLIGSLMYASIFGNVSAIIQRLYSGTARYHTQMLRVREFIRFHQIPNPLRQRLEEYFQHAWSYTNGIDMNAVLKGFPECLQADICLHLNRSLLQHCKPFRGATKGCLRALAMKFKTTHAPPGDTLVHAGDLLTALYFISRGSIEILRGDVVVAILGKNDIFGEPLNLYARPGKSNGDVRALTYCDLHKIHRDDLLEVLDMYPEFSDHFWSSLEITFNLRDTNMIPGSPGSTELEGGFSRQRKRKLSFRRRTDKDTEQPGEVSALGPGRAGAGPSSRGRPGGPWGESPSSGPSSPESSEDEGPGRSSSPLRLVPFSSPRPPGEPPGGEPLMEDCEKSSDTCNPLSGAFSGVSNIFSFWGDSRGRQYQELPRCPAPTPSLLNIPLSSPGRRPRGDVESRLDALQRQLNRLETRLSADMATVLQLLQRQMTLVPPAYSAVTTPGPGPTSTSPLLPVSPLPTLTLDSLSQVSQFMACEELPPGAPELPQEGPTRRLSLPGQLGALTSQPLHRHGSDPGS
Chain of cAMP and cAMP-inhibited cGMP 3',5'-cyclic phosphodiesterase 10A (Q9Y233 whole entry): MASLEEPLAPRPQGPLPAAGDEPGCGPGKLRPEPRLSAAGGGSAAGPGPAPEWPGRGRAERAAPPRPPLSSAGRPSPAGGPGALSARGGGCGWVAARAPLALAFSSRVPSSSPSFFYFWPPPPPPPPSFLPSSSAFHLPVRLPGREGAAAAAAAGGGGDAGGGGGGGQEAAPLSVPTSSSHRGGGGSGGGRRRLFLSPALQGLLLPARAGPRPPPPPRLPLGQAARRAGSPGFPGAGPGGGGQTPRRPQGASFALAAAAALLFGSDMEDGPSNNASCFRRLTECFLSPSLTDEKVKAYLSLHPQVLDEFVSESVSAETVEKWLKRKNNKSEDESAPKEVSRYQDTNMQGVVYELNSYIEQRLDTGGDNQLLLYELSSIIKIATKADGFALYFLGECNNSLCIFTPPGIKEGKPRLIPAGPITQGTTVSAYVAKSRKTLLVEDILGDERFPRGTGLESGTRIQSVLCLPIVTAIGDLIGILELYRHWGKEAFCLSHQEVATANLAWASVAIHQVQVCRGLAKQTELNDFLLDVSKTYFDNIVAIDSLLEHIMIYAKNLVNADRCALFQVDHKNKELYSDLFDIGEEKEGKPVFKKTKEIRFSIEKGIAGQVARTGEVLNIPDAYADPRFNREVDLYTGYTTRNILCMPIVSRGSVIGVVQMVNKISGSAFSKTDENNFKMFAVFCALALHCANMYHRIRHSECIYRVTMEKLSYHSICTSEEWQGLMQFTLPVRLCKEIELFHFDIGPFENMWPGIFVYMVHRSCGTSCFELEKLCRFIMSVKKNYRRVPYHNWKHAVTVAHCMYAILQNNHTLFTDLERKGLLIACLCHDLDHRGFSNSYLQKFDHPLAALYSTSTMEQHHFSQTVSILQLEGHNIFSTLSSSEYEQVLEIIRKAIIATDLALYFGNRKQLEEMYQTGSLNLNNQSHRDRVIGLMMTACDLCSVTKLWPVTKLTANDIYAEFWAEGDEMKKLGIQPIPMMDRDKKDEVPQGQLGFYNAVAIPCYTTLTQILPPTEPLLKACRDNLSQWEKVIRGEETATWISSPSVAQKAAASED
Chain of Cytochrome P450 2D6 (P10635 whole entry): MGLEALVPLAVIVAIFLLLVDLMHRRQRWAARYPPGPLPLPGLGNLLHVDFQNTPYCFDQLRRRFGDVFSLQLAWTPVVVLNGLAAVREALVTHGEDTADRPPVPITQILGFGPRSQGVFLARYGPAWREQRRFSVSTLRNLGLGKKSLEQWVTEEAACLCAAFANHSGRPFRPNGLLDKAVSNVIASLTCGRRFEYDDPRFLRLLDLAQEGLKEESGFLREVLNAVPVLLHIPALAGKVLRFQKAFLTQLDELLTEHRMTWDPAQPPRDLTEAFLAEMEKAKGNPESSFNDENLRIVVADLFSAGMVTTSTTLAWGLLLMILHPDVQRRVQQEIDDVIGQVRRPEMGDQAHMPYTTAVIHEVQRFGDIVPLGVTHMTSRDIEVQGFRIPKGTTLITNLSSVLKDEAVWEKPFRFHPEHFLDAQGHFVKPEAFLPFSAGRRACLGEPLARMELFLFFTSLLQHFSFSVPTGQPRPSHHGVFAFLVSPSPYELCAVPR
Chain of Cytochrome P450 2C9 (P11712 whole entry): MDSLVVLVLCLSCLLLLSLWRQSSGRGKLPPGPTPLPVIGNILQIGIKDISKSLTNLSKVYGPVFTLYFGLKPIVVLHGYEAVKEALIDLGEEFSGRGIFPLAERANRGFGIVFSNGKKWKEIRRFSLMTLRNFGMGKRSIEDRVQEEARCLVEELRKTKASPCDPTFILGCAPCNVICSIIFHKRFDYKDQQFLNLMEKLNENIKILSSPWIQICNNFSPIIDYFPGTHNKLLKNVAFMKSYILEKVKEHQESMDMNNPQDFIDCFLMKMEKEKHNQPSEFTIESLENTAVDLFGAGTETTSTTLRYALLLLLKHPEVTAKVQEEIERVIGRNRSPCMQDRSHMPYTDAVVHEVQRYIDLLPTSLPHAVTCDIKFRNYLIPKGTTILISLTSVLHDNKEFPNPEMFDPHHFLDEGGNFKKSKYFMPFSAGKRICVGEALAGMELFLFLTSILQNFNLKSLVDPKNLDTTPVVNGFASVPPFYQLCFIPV

Compound: COc1ccnc(C2CC2COc2nc(Cl)c(C)c(NCc3sc(C)nc3C)n2)c1 (racemic)
Ki [1]: 0.01 nM

Compound: Cc1nc(C)c(CNc2nc(OCC3CC3c3ccc4ncccc4n3)nc(Cl)c2C)s1 (racemic)
Ki [1]: 0.02 nM

Compound: Cc1nc(C)c(CNc2nc(OCC3CC3c3ccncc3)nc(Cl)c2C)s1 (centres undefined)
Ki [1]: 8.3 nM

Compound: Cc1nc(C)c(CNc2nc(OC[C@@H]3C[C@H]3c3ccccn3)nc(Cl)c2C)s1
Ki [1]: 8.6 nM

Compound: Cc1nc(C)c(CNc2nc(OCC3CC3c3ccc4ccccc4n3)nc(Cl)c2C)s1 (racemic)
Ki [1]: 0.01 nM

Compound: Cc1c(Cl)nc(C2CC2)nc1Cl
solubility [2]: 150 µM (≈ 30.5 µg/mL)

Compound: Cc1nc(C)c(CNc2nc(OCCCc3ccccn3)nc(Cl)c2C)s1
Ki [1]: 1.1 nM

Compound: Cc1nc(C)c(CNc2nc(OCC3CC3C3CCCN3C)nc(Cl)c2C)s1 (racemic; form 1)
Ki [1]: 102 nM

Compound: Cc1nc(C)c(CNc2cc(C3CC3)nc3ccnn23)s1
EC50 [3]: > 250000 nM | solubility [2]: 196 µM (≈ 58.7 µg/mL) | INH [4]: 52 µM | fraction unbound [5]: 0.08 | IC50 (Cytochrome P450 3A4 [7]): > 50000 nM

Compound: Cc1nc(C)c(CNc2nc(OCC3CC3c3cn(C)cn3)nc(Cl)c2C)s1 (racemic)
Ki [1]: 0.02 nM

Compound: Cc1nc(C)c(CNc2nc(OCC3CC3c3cc4ccccn4n3)nc(Cl)c2C)s1 (racemic)
Ki [1]: 0.006 nM

Compound: Cc1nc(C)c(CNc2nc(NCCCc3ccccn3)nc(Cl)c2C)s1
Ki [1]: 4.1 nM

Compound: Cc1nc(C)c(CNc2nc(CCCOc3ccccn3)nc(Cl)c2C)s1
Ki [1]: 3.1 nM

Compound: Cc1nc(C)c(CNc2nc(OC[C@H]3C[C@@H]3c3ccccn3)nc(Cl)c2C)s1
Ki [1]: 0.03 nM

Compound: Cn1cc(-c2ccncc2)c(-c2ccc(OCc3ccc4ccccc4n3)cc2)n1 [MARDEPODECT]
solubility [2]: 4 µM (≈ 1.57 µg/mL)

Compound: Clc1cc(Cl)n2nccc2n1
Ki [1]: 24000 nM | solubility [2]: > 500 µM

Compound: Cc1nc(C)c(CNc2nc(NCC(C)(C)Cc3ccccn3)nc(Cl)c2C)s1
Ki [1]: 19.1 nM

Compound: Cc1nc(C)c(CNc2nc(OCC3CC3c3ncccn3)nc(Cl)c2C)s1 (racemic)
Ki [1]: 3.6 nM

Compound: Cc1nc(C)c(CNc2nc(OC[C@H]3C[C@H]3c3ccccn3)nc(Cl)c2C)s1 (racemic)
Ki [1]: 15.5 nM

Compound: Cc1nc(C)c(CNc2nc(OC[C@H]3C[C@@H]3c3ccccn3)nc(Cl)c2C)s1 (racemic)
Ki [1]: 0.07 nM

Further lines, with some results ahead:

Ki [1]: 3.1 nM
Compound: Cc1nc(C)c(CNc2nc(OCC#Cc3ccccn3)nc(Cl)c2C)s1

Ki [1]: 0.4 nM
Compound: Cc1nc(C)c(CNc2nc(CCCCc3ccccn3)nc(Cl)c2C)s1

Ki [1]: 0.01 nM
Compound: Cc1ccnc(C2CC2COc2nc(Cl)c(C)c(NCc3sc(C)nc3C)n2)c1 (centres undefined)

EC50 [3]: 5600 nM | solubility [2]: 162 µM (≈ 62.3 µg/mL) | fraction unbound [5]: 0.01 | clearance [6]: 29 mL/min/kg | Selectivity ratio (Homo sapiens): > 2500 | IC50 (Cytochrome P450 3A4 [7]): 3800 nM | IC50 (Cytochrome P450 2C9): 5200 nM
Compound: Cc1c(Cl)nc(OC[C@H]2C[C@@H]2c2ccccn2)nc1NCc1cnn(C)c1
INH [4]: > 60 µM

Ki [1]: 1.7 nM
Compound: Cc1nc(C)c(CNc2nc(CC[C@H]3C[C@@H]3c3ccccn3)nc(Cl)c2C)s1 (racemic)

Ki [1]: 1.4 nM
Compound: Cc1nc(C)c(CNc2nc(OCC3CC3c3ccc(C#N)cn3)nc(Cl)c2C)s1 (racemic)

EC50 [3]: 2300 nM | clearance [8]: 60 mL/min/kg
Compound: Cc1nc(C)c(CNc2nc(OCCCc3ccc4ccccc4n3)nc(Cl)c2C)s1
INH [4]: 3.8 µM

EC50 [3]: 19000 nM | solubility [2]: 2 µM (≈ 0.618 µg/mL) | fraction unbound [9]: 0.015 | IC50 (Cytochrome P450 3A4 [7]): 17000 nM | IC50 (Cytochrome P450 2D6): 8200 nM
Compound: Cc1nc(C)c(CNc2nc(C3CC3)nc(Cl)c2C)s1

Ki [1]: 1.1 nM
Compound: Cc1nc(C)c(CNc2nc(CCC#Cc3ccccn3)nc(Cl)c2C)s1

Ki [1]: 54 nM
Compound: Cc1nc(C)c(CNc2nc(OCC3CC3C3CCCN3C)nc(Cl)c2C)s1 (racemic; form 2)

EC50 [3]: > 25000 nM | Ki [1]: 0.23 nM | logD [11]: 2 | Papp [12]: 36 ×10⁻⁶ cm/s | efflux ratio (P-gp [13]): 0.6 | efflux ratio (P-gp [14]): 0.7 | TDI (Cytochrome P450 3A4 [15]): Not Active | fraction unbound [9]: 0.09 | clearance [8]: 21 mL/min/kg | fraction unbound [16]: 0.06 | fraction unbound [17]: 0.03 | fraction unbound [18]: 0.07 | IC50 [19]: 2200 nM | clearance [21]: 3.9 mL/min/kg | clearance [22]: 8.2 mL/min/kg | half-life [23]: 4.9 h | half-life [24]: 8.7 h | half-life [25]: 2.8 h | bioavailability [26]: 41% | bioavailability [27]: 63% | bioavailability [28]: 46% | Selectivity ratio (Homo sapiens): > 5800 | IC50 (Cytochrome P450 3A4 [7]): > 50000 nM
Compound: Cn1cc(CNc2cc(OC[C@H]3C[C@@H]3c3ccccn3)nc3ccnn23)cn1
Activity (Rattus norvegicus [10]): Dose-dependent effect | INH [4]: > 60 µM | Activity (Rattus norvegicus [20]): Non-toxic | inhibition (INH) (Rattus norvegicus [29]): >150% | Activity (Rattus norvegicus [30]): 130 nM | Activity (Rattus norvegicus [31]): Active | Activity (Salmonella typhimurium): Non-toxic | Activity (Cavia porcellus): Non-toxic | Activity (Rattus norvegicus [32]): Non-toxic | Activity (Rattus norvegicus [33]): Non-toxic | Activity (Rattus norvegicus [34]): Non-toxic | Activity (Rattus norvegicus [35]): Toxic | Activity (Rattus norvegicus [36]): Toxic | Activity (Rattus norvegicus [37]): Toxic | Occ50 (Rhesus monkey [38]): 1.1 µM | Ratio (Rhesus monkey [39]): 2

Ki [1]: 20.3 nM
Compound: Cc1nc(C)c(CNc2nc(OCC3CC3c3cncn3C)nc(Cl)c2C)s1 (centres undefined)

Ki [1]: 58 nM
Compound: Cc1nc(C)c(CNc2cc(Cl)nc3ccnn23)s1
